ChEMBL document CHEMBL5154787 (J Med Chem, 2022)
≈ marks a conversion by molar mass, not a printed value.

Key:
[1] = Solubility of compound at pH 3 measured after 24 hrs; type: physicochemical; conditions: buffer
[2] = Chemical stability of the compound assessed as remaining product at pH 1 measured after 22 hrs; type: physicochemical; conditions: buffer, read-out: Stability
[3] = Solubility of compound at pH 1 measured after 24 hrs; type: physicochemical; conditions: buffer
[4] = Genotoxicity in chinese hamster CHO cells in presence of metabolic activation system at 169 uM by IVMN assay; type: toxicity, cell-based, Cricetulus griseus
[5] = Solubility of compound in FessiF incubated for 24 hrs; type: physicochemical
[6] = tested on: Rattus norvegicus; test: Analgesic activity in STZ induced in diabetic peripheral neuropathic mechanical allodynia in Sprague-Dawley rat assessed as reduction in pain response at 3 mg/kg, po measured up to 24 hrs by Hargreaves test relative to control; type: functional; set-up: scale not given: the % may be the effect or the level left
[7] = Solubility of compound at pH 7.4 measured after 24 hrs; type: physicochemical; conditions: buffer
[8] = biological target: Death-associated protein kinase 1 (Homo sapiens, UniProt P53355); test: Inhibition of DAPK1 (unknown origin)
[9] = Solubility of compound in FaSSIF incubated for 24 hrs; type: physicochemical
[10] = Solubility of compound at pH 5 measured after 24 hrs; type: physicochemical; conditions: buffer
[11] = Solubility of compound at pH 6.5 measured after 24 hrs; type: physicochemical; conditions: buffer
[12] = tested on: Rattus norvegicus; test: Analgesic activity in STZ induced in diabetic peripheral neuropathic mechanical allodynia in Sprague-Dawley rat assessed as reversal in mechanical allodynia by measuring inhibition of pain response at 1 mg/kg, po measured up to 24 hrs by Hargreaves test relative to control; type: functional; set-up: scale not given: the % may be the effect or the level left
[13] = Chemical stability of the compound assessed as remaining product at pH 7.4 measured after 22 hrs; type: physicochemical; conditions: buffer, read-out: Stability
[14] = biological target: 5-hydroxytryptamine receptor 2B (Homo sapiens, UniProt P41595); test: Inhibition of 5HT2B receptor (unknown origin); type: toxicity
[15] = biological target: AP2-associated protein kinase 1 (Homo sapiens, UniProt Q2M2I8); test: Inhibition of bacterially expressed GST-Xa-tagged human AAK1 using 5-FAM-labelled Aha-KEEQSQITSQVTGQIGWR-NH2 peptide as substrate incubated for 3 hrs in presence of ATP by electrophoretic analysis
[16] = Inhibition of TAK/TAB (unknown origin)
[17] = biological target: Rho-associated protein kinase 2 (Homo sapiens, UniProt O75116); test: Inhibition of ROCK2 (unknown origin)
[18] = biological target: Acetylcholine receptor subunit alpha (Homo sapiens, UniProt P02708); test: Inhibition of nicotinic acetylcholine receptor alpha 1 (unknown origin); type: toxicity
[19] = Inhibition of cardiac sodium channel (unknown origin); set-up: species or system Homo sapiens
[20] = biological target: Solute carrier family 22 member 6 (Homo sapiens, UniProt Q4U2R8); test: Inhibition of OAT1 (unknown origin)
[21] = Plasma concentration in rat at 3 mg/kg, po measured after 4 hrs; type: ADME, organism-based
[22] = Drug concentration in CCI induced thermal hyperalgesia in Sprague-Dawley rat spinal cord at 1 mg/kg, po measured after 5.5 hrs; type: ADME, organism-based; conditions: read-out: Ct
[23] = tested on: Rattus norvegicus; test: Analgesic activity in CCI induced thermal hyperalgesia in Sprague-Dawley rat assessed as reduction in thermal hyperalgesia by measuring inhibition of pain response at 3 mg/kg, po measured after 5.5 hrs by Hargreaves test relative to control; type: functional; set-up: scale not given: the % may be the effect or the level left
[24] = Protein binding in mouse brain assessed as unbound fraction at 1 uM measured after 4 hrs by LC/MS/MS analysis; type: ADME, tissue-based
[25] = tested on: Rattus norvegicus; test: Analgesic activity in CCI induced thermal hyperalgesia in Sprague-Dawley rat assessed as reduction in thermal hyperalgesia by measuring inhibition of pain response at 1 mg/kg, po measured after 5.5 hrs by Hargreaves test relative to control; type: functional; set-up: scale not given: the % may be the effect or the level left
[26] = Plasma concentration in CCI induced thermal hyperalgesia in Sprague-Dawley rat at 1 mg/kg, po measured at 5.5 hrs post dose; type: ADME, organism-based
[27] = biological target: Solute carrier organic anion transporter family member 1B3 (Homo sapiens, UniProt Q9NPD5); test: Inhibition of OATP1B3 (unknown origin)
[28] = tested on: Rattus norvegicus; test: Analgesic activity in STZ induced in diabetic peripheral neuropathic path mechanical allodynia in Sprague-Dawley rat assessed as reversal in mechanical allodynia by measuring inhibition of pain response at 1 mg/kg, po measured up to 5.5 hrs by Hargreaves test relative to control; type: functional; set-up: scale not given: the % may be the effect or the level left
[29] = Drug concentration in CCI induced thermal hyperalgesia in Sprague-Dawley rat spinal cord at 3 mg/kg, po measured after 5.5 hrs; type: ADME, organism-based; conditions: read-out: Ct
[30] = Tmax in rat at 3 mg/kg, po; type: ADME, organism-based; conditions: in vivo
[31] = biological target: TRAF2 and NCK-interacting protein kinase (Homo sapiens, UniProt Q9UKE5); test: Inhibition of TNIK (unknown origin)
[32] = Plasma concentration in CCI induced thermal hyperalgesia in Sprague-Dawley rat at 3 mg/kg, po measured at 5.5 hrs post dose; type: ADME, organism-based
[33] = Ratio of drug concentration in spinal cord to plasma in CCI induced thermal hyperalgesia in Sprague-Dawley rat at 1 mg/kg, po measured at 5.5 hrs post dose; type: ADME, organism-based
[34] = Ratio of drug concentration in spinal cord to plasma in CCI induced thermal hyperalgesia in Sprague-Dawley rat at 3 mg/kg, po measured at 5.5 hrs post dose; type: ADME, organism-based
[35] = biological target: Bile salt export pump (Homo sapiens, UniProt O95342); test: Inhibition of BSEP (unknown origin)
[36] = Protein binding in cynomolgus monkey plasma assessed as unbound fraction measured after 3 hrs by LC/MS/MS analysis; type: ADME, cell-free, Macaca fascicularis
[37] = biological target: Organic anion transporter 3 (Homo sapiens, UniProt Q8TCC7); test: Inhibition of OAT3 (unknown origin)
[38] = Protein binding in dog plasma assessed as unbound fraction measured after 3 hrs by LC/MS/MS analysis; type: ADME, cell-free, Canis lupus familiaris
[39] = biological target: Citron Rho-interacting kinase (Homo sapiens, UniProt O14578); test: Inhibition of CRIK (unknown origin)
[40] = biological target: Hepatic sodium/bile acid cotransporter (Homo sapiens, UniProt Q14973); test: Inhibition of NTCP (unknown origin)
[41] = Ratio of drug concentration in spinal cord to plasma in rat at 3 mg/kg, po measured at 4 hrs post dose; type: ADME, organism-based
[42] = In vivo protein occupancy at AAK1 in rat at 3 mg/kg, po measured after 4 hrs; type: functional

Chain of AP2-associated protein kinase 1 (Q2M2I8 whole entry): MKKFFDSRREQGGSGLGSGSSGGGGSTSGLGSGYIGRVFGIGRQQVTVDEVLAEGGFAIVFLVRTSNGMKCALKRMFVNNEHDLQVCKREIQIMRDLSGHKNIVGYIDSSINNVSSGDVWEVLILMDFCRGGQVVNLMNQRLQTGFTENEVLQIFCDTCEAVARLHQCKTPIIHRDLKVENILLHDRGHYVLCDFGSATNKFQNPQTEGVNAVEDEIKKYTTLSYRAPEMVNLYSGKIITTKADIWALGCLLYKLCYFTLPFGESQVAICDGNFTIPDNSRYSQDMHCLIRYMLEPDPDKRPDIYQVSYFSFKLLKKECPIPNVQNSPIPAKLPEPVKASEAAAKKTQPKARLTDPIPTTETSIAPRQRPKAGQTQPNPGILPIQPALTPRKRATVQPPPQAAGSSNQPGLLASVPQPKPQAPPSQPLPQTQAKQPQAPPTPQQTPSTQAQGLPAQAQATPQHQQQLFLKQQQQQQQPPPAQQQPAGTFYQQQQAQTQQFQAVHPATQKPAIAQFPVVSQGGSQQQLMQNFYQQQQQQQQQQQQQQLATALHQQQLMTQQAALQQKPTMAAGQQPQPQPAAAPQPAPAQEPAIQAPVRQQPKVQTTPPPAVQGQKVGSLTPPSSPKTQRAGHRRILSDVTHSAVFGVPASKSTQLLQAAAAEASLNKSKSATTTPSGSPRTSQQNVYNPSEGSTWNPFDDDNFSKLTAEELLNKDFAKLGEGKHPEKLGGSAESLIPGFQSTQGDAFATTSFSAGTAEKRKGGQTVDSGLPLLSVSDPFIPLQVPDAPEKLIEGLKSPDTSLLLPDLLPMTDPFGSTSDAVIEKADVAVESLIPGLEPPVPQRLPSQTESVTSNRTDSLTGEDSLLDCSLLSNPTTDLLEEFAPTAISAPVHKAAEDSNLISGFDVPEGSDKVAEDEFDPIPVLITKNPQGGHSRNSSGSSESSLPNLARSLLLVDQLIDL
Chain of Solute carrier organic anion transporter family member 1B3 (Q9NPD5 whole entry): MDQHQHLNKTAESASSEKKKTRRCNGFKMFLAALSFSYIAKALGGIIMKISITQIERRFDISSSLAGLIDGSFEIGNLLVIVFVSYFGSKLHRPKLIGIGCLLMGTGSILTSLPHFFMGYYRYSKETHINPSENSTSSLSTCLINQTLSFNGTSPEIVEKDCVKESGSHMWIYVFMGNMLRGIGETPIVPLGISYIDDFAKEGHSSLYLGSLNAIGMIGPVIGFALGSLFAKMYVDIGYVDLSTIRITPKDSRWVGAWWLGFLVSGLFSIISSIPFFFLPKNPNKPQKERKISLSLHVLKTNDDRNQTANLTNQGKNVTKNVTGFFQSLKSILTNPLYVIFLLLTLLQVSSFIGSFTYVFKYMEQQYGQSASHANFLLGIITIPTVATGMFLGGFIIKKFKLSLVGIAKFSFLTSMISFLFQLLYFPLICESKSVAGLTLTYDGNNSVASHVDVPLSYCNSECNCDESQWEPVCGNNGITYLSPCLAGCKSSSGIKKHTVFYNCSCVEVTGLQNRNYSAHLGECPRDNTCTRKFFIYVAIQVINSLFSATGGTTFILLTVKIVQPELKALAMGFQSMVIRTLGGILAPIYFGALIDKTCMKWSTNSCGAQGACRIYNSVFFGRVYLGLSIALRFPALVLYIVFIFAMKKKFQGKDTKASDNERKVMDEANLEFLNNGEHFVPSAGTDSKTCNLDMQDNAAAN
Chain of Solute carrier family 22 member 6 (Q4U2R8 whole entry): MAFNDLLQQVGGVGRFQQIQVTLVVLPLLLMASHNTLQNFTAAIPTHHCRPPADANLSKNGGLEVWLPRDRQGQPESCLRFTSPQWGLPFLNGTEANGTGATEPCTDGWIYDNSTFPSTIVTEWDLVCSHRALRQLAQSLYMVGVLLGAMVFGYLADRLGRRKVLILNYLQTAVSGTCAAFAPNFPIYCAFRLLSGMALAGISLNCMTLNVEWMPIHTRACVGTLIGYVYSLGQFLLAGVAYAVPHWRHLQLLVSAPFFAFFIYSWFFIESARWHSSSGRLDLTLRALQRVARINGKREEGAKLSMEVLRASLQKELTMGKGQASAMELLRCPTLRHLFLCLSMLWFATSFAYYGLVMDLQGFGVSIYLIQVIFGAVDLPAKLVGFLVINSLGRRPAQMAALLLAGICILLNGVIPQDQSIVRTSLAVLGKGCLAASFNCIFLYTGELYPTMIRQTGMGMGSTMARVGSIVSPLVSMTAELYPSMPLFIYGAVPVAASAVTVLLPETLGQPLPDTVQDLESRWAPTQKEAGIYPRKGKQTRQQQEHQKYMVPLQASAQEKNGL
Chain of 5-hydroxytryptamine receptor 2B (P41595 whole entry): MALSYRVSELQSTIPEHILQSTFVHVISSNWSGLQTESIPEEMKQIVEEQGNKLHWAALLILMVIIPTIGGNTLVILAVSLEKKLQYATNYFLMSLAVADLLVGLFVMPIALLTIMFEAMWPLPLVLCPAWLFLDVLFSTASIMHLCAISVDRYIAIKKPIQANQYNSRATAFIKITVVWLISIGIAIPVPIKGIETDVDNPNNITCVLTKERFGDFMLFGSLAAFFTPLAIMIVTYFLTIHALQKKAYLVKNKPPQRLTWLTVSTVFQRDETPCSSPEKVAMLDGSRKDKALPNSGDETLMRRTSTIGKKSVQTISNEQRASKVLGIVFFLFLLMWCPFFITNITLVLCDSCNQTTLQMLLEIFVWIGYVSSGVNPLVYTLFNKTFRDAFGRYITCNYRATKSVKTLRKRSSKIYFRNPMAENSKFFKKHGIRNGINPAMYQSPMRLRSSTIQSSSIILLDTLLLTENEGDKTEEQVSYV
Chain of Bile salt export pump (O95342 whole entry): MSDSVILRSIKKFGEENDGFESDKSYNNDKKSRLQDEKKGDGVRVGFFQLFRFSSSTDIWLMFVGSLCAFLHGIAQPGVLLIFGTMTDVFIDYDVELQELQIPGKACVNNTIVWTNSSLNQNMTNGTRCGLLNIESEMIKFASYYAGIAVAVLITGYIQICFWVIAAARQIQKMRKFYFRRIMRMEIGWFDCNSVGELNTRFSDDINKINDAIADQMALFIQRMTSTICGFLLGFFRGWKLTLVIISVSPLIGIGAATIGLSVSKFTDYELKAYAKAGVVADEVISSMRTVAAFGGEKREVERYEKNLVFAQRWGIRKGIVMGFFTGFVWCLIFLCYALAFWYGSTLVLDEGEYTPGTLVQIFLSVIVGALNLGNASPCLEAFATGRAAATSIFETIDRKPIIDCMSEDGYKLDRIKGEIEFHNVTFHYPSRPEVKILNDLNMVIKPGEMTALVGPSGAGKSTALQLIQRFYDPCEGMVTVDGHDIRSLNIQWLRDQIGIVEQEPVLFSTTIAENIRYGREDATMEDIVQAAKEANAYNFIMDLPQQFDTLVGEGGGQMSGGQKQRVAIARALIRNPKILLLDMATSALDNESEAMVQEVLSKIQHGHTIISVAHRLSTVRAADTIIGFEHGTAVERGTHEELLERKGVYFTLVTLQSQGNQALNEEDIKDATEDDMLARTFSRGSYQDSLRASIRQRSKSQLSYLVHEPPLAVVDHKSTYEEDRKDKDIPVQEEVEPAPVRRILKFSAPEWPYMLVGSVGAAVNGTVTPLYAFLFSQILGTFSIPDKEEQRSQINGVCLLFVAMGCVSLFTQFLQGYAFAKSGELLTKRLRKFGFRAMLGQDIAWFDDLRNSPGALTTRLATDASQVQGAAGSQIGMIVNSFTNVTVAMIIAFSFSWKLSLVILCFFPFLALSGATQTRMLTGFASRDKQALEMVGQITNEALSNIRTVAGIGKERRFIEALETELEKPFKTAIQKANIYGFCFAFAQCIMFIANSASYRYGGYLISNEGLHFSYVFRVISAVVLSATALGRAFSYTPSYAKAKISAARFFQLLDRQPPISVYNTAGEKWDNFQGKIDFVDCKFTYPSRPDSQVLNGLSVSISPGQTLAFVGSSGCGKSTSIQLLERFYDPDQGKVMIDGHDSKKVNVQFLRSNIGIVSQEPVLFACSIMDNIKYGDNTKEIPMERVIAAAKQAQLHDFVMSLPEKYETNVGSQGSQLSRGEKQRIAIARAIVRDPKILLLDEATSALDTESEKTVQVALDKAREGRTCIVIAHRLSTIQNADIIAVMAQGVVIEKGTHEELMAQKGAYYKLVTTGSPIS
Chain of Hepatic sodium/bile acid cotransporter (Q14973 whole entry): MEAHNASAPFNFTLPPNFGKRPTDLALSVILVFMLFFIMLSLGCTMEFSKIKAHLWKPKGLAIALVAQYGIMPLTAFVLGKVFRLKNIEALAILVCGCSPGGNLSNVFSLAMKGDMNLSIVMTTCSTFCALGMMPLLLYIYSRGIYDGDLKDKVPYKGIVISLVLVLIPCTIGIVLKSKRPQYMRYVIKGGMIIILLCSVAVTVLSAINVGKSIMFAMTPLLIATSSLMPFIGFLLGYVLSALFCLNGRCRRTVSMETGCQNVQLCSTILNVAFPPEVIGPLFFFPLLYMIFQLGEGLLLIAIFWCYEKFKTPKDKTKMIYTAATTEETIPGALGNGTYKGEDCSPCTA
Chain of Organic anion transporter 3 (Q8TCC7 whole entry): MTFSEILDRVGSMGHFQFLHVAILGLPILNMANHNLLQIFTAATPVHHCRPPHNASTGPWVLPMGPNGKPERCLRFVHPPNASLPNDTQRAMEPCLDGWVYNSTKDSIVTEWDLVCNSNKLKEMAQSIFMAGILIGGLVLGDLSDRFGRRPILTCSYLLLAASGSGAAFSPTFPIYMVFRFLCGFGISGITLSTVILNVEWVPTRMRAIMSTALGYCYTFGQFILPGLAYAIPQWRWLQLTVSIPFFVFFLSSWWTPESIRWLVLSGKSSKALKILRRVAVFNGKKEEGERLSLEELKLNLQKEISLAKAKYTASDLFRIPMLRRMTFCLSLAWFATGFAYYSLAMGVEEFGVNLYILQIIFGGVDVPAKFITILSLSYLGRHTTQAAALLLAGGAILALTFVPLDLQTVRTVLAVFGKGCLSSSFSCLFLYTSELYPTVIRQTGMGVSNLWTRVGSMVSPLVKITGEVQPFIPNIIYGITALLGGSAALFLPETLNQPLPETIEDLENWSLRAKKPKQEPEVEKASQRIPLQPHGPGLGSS

COC(=O)Nc1cc(-c2ccc(OC[C@@](C)(N)CC(C)C)c(C)n2)ccn1
solubility at 24 h [1]: > 1000 µg/mL
remaining at 22 h [2]: 100%
solubility at 24 h [3]: > 1000 µg/mL
Activity [4]: Non-Toxic
solubility at 24 h [5]: > 1000 µg/mL
Activity [6]: 60%
solubility at 24 h [7]: 288 µg/mL (≈ 773 µM)
IC50 [8]: 1.4 µM
solubility at 24 h [9]: > 1000 µg/mL
solubility at 24 h [10]: > 1000 µg/mL
solubility at 24 h [11]: > 1000 µg/mL
Activity [12]: 40%
remaining at 22 h [13]: 100%
IC50 [14]: 0.54 µM

COC(=O)Nc1cc(-c2cnc(OC[C@@](C)(N)CC(C)C)c(C)c2)ccn1
IC50 [15]: 0.0009 µM
IC50 [16]: 0.18 µM
IC50 [17]: 1.3 µM
IC50 [18]: 2.2 µM

CC(C)C[C@](C)(N)COc1cnc(-c2ccnc(C(F)F)c2)cc1C(F)F
IC50 [19]: 5.4 µM
IC50 [20]: > 50 µM
concentration at 4 h [21]: 47 nM
concentration at 5.5 h [22]: 217 nM
Activity [23]: 100%
fraction unbound at 4 h, 1 µM [24]: 0.018
Activity [25]: 80%
concentration at 5.5 h [26]: 12 nM
IC50 [27]: > 50 µM
Activity [28]: 50%
concentration at 5.5 h [29]: 378 nM
Tmax [30]: 3.7 h
IC50 [31]: 2 µM
concentration at 5.5 h [32]: 29 nM
Kp at 5.5 h [33]: 18
Kp at 5.5 h [34]: 13
IC50 [35]: > 50 µM
fraction unbound at 3 h [36]: 0.075
IC50 [37]: > 50 µM
fraction unbound at 3 h [38]: 0.08
IC50 [39]: 1.2 µM
IC50 [40]: > 50 µM
Kp at 4 h [41]: 17.6
Activity [42]: 95%
